Target: acetylcholinesterase (Homo sapiens, UniProt P22303)
Experiment: Determination of inhibitory activity against acetylcholinesterase (photometric method of Ellman et al.)
Assay type: biochemical
Conditions: Relative ratio = IC50 (molar) of Tacrine / IC50 (molar) of test compound; IC50 = concentration of drug which inhibits 50% level of control
Method: Determination of inhibitory activity against acetylcholinesterase
The inhibitory activity against acetylchalinesterase of the compounds provided with the present invention was determined by the photometric methods described in Ellman et al., Biochemical Pharmacology, Vol. 7, p.

acetylcholinesterase, sequence (P22303 32-614): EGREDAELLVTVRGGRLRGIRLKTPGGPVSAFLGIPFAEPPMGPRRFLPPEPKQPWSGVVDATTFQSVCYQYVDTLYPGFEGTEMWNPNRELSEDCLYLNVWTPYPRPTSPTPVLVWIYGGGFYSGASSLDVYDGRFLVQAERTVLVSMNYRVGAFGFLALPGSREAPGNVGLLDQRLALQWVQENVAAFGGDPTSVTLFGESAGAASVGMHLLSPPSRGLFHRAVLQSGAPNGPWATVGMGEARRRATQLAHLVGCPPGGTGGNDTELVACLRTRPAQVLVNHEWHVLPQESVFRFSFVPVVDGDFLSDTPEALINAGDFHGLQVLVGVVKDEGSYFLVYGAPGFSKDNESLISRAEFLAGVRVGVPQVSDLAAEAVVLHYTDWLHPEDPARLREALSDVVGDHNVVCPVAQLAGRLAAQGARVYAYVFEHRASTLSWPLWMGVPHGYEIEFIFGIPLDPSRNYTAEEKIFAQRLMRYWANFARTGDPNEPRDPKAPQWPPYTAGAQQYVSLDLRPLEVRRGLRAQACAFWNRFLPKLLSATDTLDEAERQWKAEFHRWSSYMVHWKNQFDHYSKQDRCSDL

| SMILES | Acetylcholinesterase Inhibition (reative ratio*) |
| --- | --- |
| Nc1c2c(nc3cc(F)ccc13)CCCC2 [Example 2, 9-amino-6-fluoro-1,2,3,4-tetrahydroacridine] | 2.53 |
| Nc1c2c(nc3cccc(F)c13)CCC2 [Example 6] | 1.75 |
| Cc1cccc2nc3c(c(N)c12)CC(C)C3 (centres unmarked) [Example 14] | 1.27 |
| Nc1c2c(nc3cc(Cl)ccc13)C1C=CC2CC1 (centres unmarked) [Example 94] | 2.22 |
| Nc1c2c(nc3cc(C(F)(F)F)ccc13)CCCC2 [compound 36] | 1.15 |
| Nc1c2c(nc3cc(F)c(F)cc13)CCCCC2 [compound 38] | 2.04 |
| Cc1cccc2nc3c(c(N)c12)CSCC3 [compound 112] | 1.30 |
| Nc1c2c(nc3cccc(F)c13)CSCC2 [compound 118] | 3.13 |
| Nc1c2c(nc3cccc(Cl)c13)CSCC2 [compound 149] | 4.12 |
| Nc1c2c(nc3c(F)cccc13)CCCCC2 [compound 156] | 2.50 |
| Nc1c2c(nc3cccc(F)c13)CCCC2 [compound 157] | 3.60 |

— patent publication EP0268871A1, “Quinoline derivatives” (priority 1986, dated 1988)
